Patent US12037344B2, “NLRP3 modulators” (INNATE TUMOR IMMUNITY, INC., priority 2018, dated 2024)
Like-named read-outs stand apart in the source and are kept apart here.

Tests used:
TLR8 = target: T1, TLR8 (Homo sapiens, UniProt Q9NR97); assay: In vitro human TLR8 binding reporter assay (HEK-Blue, NF-kB/AP1-inducible SEAP); assay type: cell-based; details: activity range class, read-out: TLR8 Agonist EC50
T1 construct: human HEK-Blue cells co-expressing a TLR7 or TLR8 gene
T1 sequence (Q9NR97 27-1041): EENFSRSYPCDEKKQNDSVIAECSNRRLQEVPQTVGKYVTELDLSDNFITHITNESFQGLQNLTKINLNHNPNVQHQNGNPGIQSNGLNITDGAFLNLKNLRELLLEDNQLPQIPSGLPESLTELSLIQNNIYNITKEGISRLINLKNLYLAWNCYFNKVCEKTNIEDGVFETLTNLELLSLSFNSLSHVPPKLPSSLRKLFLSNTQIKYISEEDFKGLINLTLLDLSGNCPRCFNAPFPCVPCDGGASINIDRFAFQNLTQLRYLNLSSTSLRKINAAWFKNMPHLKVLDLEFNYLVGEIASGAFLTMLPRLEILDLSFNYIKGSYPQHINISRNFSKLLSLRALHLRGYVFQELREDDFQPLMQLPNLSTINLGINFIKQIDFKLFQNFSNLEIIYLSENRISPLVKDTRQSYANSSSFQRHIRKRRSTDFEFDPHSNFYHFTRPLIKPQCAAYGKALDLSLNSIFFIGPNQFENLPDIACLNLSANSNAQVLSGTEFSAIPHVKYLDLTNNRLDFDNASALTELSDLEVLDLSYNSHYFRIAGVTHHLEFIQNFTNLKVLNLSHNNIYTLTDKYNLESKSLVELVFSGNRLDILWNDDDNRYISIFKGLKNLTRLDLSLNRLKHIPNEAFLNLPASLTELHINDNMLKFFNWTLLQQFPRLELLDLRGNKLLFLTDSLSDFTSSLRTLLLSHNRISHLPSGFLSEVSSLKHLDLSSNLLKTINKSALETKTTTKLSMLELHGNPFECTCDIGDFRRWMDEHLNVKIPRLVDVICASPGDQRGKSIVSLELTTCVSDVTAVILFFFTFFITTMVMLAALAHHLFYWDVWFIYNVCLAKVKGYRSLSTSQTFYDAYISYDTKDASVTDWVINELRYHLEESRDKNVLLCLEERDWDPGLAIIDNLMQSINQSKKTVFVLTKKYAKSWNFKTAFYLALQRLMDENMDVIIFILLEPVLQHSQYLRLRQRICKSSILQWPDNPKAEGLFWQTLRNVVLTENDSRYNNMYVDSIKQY
Procedure: (§1) In Vitro Human TLR7 and TLR8 Binding Reporter Assays
(§2) Logarithmically-growing human HEK-Blue cells co-expressing a TLR7 or TLR8 gene and a NF-kB/AP1-inducible SEAP (secreted embryonic alkaline phosphatase; Invivogen, San Diego, CA) reporter gene are added to individual wells of a 384-well plate (15,000 cells per 20 μL per well) and maintained for 24 h at 37° C., 5% CO2. Test compounds or DMSO are distributed to separate wells the next day using acoustic liquid handling technology (100 nL per well) and cells are subsequently incubated for 18 h at 37° C., 5% CO2. Cellular SEAP production is measured using an Envision plate reader instrument thirty minutes after adding freshly-made Quanti-Blue reagent (prepared by following manufacturer instructions; Invivogen, San Diego, CA) to the HEK-Blue TLR Nf-kB-SEAP cell reactions. All EC50 values (half-maximal effective concentration) are determined using proprietary data analysis software. Normalized EC50 value=absolute value determined by setting 100% Ymax using a reference standard RLU (relative light unit) values from cells treated with 50 μM of the reference standard.

TLR7 = target: T2, TLR7 (Homo sapiens, UniProt Q9NYK1); assay: In vitro human TLR7 binding reporter assay (HEK-Blue, NF-kB/AP1-inducible SEAP); assay type: cell-based; details: activity range class, read-out: TLR7 Agonist EC50
T2 construct: human HEK-Blue cells co-expressing a TLR7 or TLR8 gene
T2 sequence (Q9NYK1 27-1049): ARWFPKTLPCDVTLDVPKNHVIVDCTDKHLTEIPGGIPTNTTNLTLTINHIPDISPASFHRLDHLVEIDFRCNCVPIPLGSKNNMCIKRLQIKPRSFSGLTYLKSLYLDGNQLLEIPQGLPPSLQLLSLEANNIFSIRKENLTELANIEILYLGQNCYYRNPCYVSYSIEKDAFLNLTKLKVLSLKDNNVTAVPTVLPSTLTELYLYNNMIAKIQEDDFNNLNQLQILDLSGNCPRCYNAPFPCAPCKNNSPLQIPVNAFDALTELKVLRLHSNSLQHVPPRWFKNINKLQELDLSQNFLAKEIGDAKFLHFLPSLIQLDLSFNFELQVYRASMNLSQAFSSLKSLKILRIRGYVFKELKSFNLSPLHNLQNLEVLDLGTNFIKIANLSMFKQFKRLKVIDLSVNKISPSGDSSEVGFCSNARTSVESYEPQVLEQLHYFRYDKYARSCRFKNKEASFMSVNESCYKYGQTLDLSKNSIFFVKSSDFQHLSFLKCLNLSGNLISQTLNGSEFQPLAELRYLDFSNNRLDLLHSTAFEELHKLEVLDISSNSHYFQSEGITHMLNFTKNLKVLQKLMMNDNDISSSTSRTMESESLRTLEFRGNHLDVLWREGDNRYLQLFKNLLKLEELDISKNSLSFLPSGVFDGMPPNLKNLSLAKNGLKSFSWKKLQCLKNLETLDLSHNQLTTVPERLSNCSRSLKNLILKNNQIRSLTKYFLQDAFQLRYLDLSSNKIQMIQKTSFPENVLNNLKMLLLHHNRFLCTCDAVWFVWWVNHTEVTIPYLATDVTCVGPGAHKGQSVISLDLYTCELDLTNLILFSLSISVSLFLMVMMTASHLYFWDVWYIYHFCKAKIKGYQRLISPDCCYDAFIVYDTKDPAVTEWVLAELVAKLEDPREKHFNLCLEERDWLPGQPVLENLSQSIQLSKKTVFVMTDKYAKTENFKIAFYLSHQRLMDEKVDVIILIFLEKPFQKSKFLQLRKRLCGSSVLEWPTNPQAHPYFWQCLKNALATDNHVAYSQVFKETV
Procedure: as §1, §2

THP-1 cells = assay: Measurement of IL-1β production, hTRF protocol (second alternative procedure), THP-1 cells; assay type: cell-based, human; details: human, read-out: NLRP3 hILIB EC50
Procedure: Measurement of IL-1β Production—hTRF Protocol (Second Alternative Procedure)
Serial dilutions of compounds in DMSO were added to low volume 384 well plates at 100 nl/well using an ECHO 550 acoustic dispenser (Labcyte) to achieve final starting concentration of 10 μM in assay.
THP-1 cells in RPMI (Gibco, 11875) media with 10% FBS at a density of 1×10^6 cell/ml in a T175 flask were treated with a final concentration of phorbol 12-myristate 13-acetate (PMA) (Sigma, P1585) of 50 ng/ml overnight at 37° C. at 5% CO2 for differentiation. Cells were harvested the next day after rinsing well with dPBS using 0.5% trypsin. A cell solution was prepared of 1×10^6 cells/ml for 50,000 cells in 50 μl/well in RPMI media with 2% FBS. Cells were plated using a multichannel pipette onto the compound dilutions in Greiner, 384 well, black clear bottom tissue culture treated plates (781090). The plates were incubated in 37° C. incubator at 5% CO2 for 2 hours.
After the 2 hour incubation, the cell plates were spun in the centrifuge for 5 minutes at 1200 rpm. Using the Felix (CyBio), 8 μl of the supernatant was transferred to 384 well, low volume, white proxy plates. (Perkin Elmer, 6008230). A human IL1beta hTRF kit was used to analyze the supernatant (CISBIO, 62HIL1BPEG). The kit instructions were followed for preparing the IL1Beta standard curve and then the antibodies from the kit were diluted 1:40 rather than 1:20 as kit instructed. Once combined, the antibodies were added across the plates, 5 μl/well. The plates were sealed and incubated at 4° C. overnight. The plates were then read on the Perkin Elmer EnVision at 665/615 nm using the hTRF laser.

[1] = Homo sapiens, THP-1, IL-1β production

SMILES	EC50 (TLR8)	EC50 (TLR7)	EC50 (THP-1 cells; [1])	EC50 (THP-1 cells; IL-1β production)
Nc1nc2cc(-c3cc[nH]n3)ccc2c2nn(C3CCCCC3O)cc12 (single isomer, unassigned) [Example 318]	> 100 µM	> 100 µM		3.09 µM
Nc1nc2cc(-c3cc[nH]n3)ccc2c2nn(C3CCCCC3O)cc12 (single isomer, unassigned) [Example 319]	> 100 µM	> 100 µM		1.13 µM
Nc1nc2cc(-c3cc[nH]n3)ccc2c2nn(C3COCC3O)cc12 (single isomer, unassigned) [Example 324]	> 100 µM	> 100 µM	1.57 µM	
Nc1nc2cc(-c3cc[nH]n3)ccc2c2nn(C3COCC3O)cc12 (single isomer, unassigned) [Example 325]	> 100 µM	> 100 µM		1.49 µM
Nc1nc2cc(-c3cc[nH]n3)ccc2c2nn(CC3CCOC3)cc12 (single isomer, unassigned) [Example 327]	> 100 µM	> 100 µM	0.7 µM	
Nc1nc2cc(-c3ccn[nH]3)ccc2c2oc(CCCOCc3ccccc3)nc12 [Example 146, 2-[3-(benzyloxy)propyl]-7-(1H-pyrazol-3-yl)-[1,3]oxazolo[4,5-c]quinolin-4-amine]			7.94 µM	
Nc1nc2cc(-c3cc[nH]n3)ccc2c2cc(CCCO)oc12 [Example 148, 3-[4-amino-7-(1H-pyrazol-3-yl)furo[2,3-c]quinolin-2-yl]propan-1-ol]			2.03 µM	
NCCc1cc2c(N)nc3cc(-c4ccn[nH]4)ccc3c2[nH]1 [Example 152, 2-(2-aminoethyl)-7-(1H-pyrazol-5-yl)-1H-pyrrolo[3,2-c]quinolin-4-amine]			3.79 µM	
Nc1nc2cc(-n3cccn3)ccc2c2cn(CCNC(=O)c3ccc(F)cn3)nc12 [Example 184]		> 100 µM	0.1 µM	

Next, values leading:

EC50 (TLR8)	EC50 (TLR7)	EC50 (THP-1 cells; [1])	EC50 (THP-1 cells; IL-1β production)	SMILES
> 100 µM	> 100 µM	0.09 µM		Nc1nc2cc(-c3cc[nH]n3)ccc2c2nn(C3CCOC3)cc12 (racemic) [Example 237]
> 100 µM	> 100 µM	0.33 µM		Nc1nc2cc(-c3cc[nH]n3)ccc2c2nn([C@@H]3CC[C@H](O)C3)cc12 (relative stereo) [Example 210, cis-3-(4-amino-7-(1H-pyrazol-3-yl)-2H-pyrazolo[4,3-c]quinolin-2-yl)cyclopentan-1-ol]
> 100 µM	> 100 µM	25.8 µM		CN1CCOC(C(=O)NCCn2cc3c(n2)c(N)nc2cc(-c4cc[nH]n4)ccc23)C1 (single isomer, unassigned) [Example 179]
> 100 µM	> 100 µM		36.7 µM	CN1CCOC(C(=O)NCCn2cc3c(n2)c(N)nc2cc(-c4cc[nH]n4)ccc23)C1 (single isomer, unassigned) [Example 180]
> 100 µM	> 100 µM		0.72 µM	Nc1nc2cc(-c3cc[nH]n3)ccc2c2nn(C3CCOC3)cc12 (single isomer, unassigned) [Example 238]
> 100 µM	> 100 µM		0.21 µM	Nc1nc2cc(-c3cc[nH]n3)ccc2c2nn(C3CCOC3)cc12 (single isomer, unassigned) [Example 239]
> 100 µM	> 100 µM	0.26 µM		CC(CCO)n1cc2c(N)nc3cc(-c4cc[nH]n4)ccc3c2n1 (single isomer, unassigned) [Example 287, 3-(4-amino-7-(1H-pyrazol-3-yl)-2H-pyrazolo[4,3-c]quinolin-2-yl)butan-1-ol]
> 100 µM	> 100 µM		0.45 µM	CC(CCO)n1cc2c(N)nc3cc(-c4cc[nH]n4)ccc3c2n1 (single isomer, unassigned) [Example 288, 3-(4-amino-7-(1H-pyrazol-3-yl)-2H-pyrazolo[4,3-c]quinolin-2-yl)butan-1-ol]
> 100 µM	> 100 µM		2.92 µM	CC(=O)NC(C)Cn1cc2c(N)nc3cc(-c4ccn[nH]4)ccc3c2n1 (single isomer, unassigned) [Example 299]
> 100 µM	> 100 µM		7.36 µM	CC(=O)NC(C)Cn1cc2c(N)nc3cc(-c4ccn[nH]4)ccc3c2n1 (single isomer, unassigned) [Example 300]
> 100 µM	> 100 µM	0.49 µM		Nc1nc2cc(-c3cc[nH]n3)ccc2c2nn(C3CCCC3O)cc12 (single isomer, unassigned) [Example 314]
> 100 µM	> 100 µM		0.89 µM	Nc1nc2cc(-c3cc[nH]n3)ccc2c2nn(C3CCCC3O)cc12 (single isomer, unassigned) [Example 315]
> 100 µM	> 100 µM		0.89 µM	Nc1nc2cc(-c3cc[nH]n3)ccc2c2nn(C3CCCC3O)cc12 (single isomer, unassigned) [Example 316]
